Results on 26 compounds are retold here after patent US20240317721A1, “PYRAZOLYL DERIVATIVES AS INHIBITORS OF THE KRAS MUTANT PROTEIN” (NOVARTIS AG, priority 2021, published 2024).

Where only a bound is given, the exact number is not on record here.

The IC50 is the midpoint of a concentration-inhibition curve.

The test deals with KRasG12C (M1-K169, biotinylated on the N-terminus) (Homo sapiens (Human), UniProt P01116, G12C). Description: Covalent competition assay: scintillation proximity assay (SPA) quantifying covalent modification of KRASG12C. The format is binding. Conditions: competition with radiolabeled covalent probe (Compound B/Compound A), 2 hours incubation, 10 nM KRasG12C. The procedure, abridged:
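Scintillation proximity readout after streptavidin bead capture (30 min) of biotinylated KRasG12C(M1-K169):GDP, 10 nM final, which was covalently labelled over 2 h by 25 nM radio-probe plus 475 nM cold probe unless blocked by compound.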
On to `C=CC(=O)N1CC2(CC(n3nc(N4CCN(C(C)=O)C5(CCC5)C4)c(-c4c(Cl)c(C)cc5[nH]ncc45)c3C)C2)C1` (single isomer, unassigned) [Example 20a, 1-(6-(3-(5-acetyl-5,8-diazaspiro[3.5]nonan-8-yl)-4-(5-chloro-6-methyl-1H-indazol-4-yl)-5-methyl-1H-pyrazol-1-yl)-2-azaspiro[3.3]heptan-2-yl)prop-2-en-1-one], for which the IC50 was 301 nM. With `C=CC(=O)N1CC2(CC(n3nc(N4CCC(n5ccnc5)CC4(C)C)c(-c4c(Cl)c(C)cc5[nH]ncc45)c3C)C2)C1` (single isomer, unassigned) [Example 45a, 1-(6-(3-(4-(1H-imidazol-1-yl)-2,2-dimethylpiperidin-1-yl)-4-(5-chloro-6-methyl-1H-indazol-4-yl)-5-methyl-1H-pyrazol-1-yl)-2-azaspiro[3.3]heptan-2-yl)prop-2-en-1-one], the IC50 came out at 365 nM. `C=CC(=O)N1CC2(CC(n3nc(N4CCN(C5COC5)CC45CCCC5)c(-c4c(Cl)c(C)cc5[nH]ncc45)c3C)C2)C1` (single isomer, unassigned) [Example 144b, 1-(6-(4-(5-chloro-6-methyl-1H-indazol-4-yl)-5-methyl-3-(9-(oxetan-3-yl)-6,9-diazaspiro[4.5]decan-6-yl)-1H-pyrazol-1-yl)-2-azaspiro[3.3]heptan-2-yl)prop-2-en-1-one]: the IC50 is 10 nM. As for `Cc1cc2[nH]ncc2c(-c2c(N3CCN(C4COC4)CC34CCC4)nn(C3CC4(C3)CN(C(=O)/C=C/CF)C4)c2C)c1Cl` (single isomer, unassigned) [Example 113a, (E)-1-(6-(4-(5-chloro-6-methyl-1H-indazol-4-yl)-5-methyl-3-(8-(oxetan-3-yl)-5,8-diazaspiro[3.5]nonan-5-yl)-1H-pyrazol-1-yl)-2-azaspiro[3.3]heptan-2-yl)-4-fluorobut-2-en-1-one], the IC50 is over 5000 nM. Turning to `C=CC(=O)N1CC2(CC(n3nc(N4CCC(N(CC)C5COC5)CC4(C)C)c(-c4c(Cl)c(C)cc5[nH]ncc45)c3C)C2)C1` (single isomer, unassigned) [Example 48b, 1-(6-(4-(5-chloro-6-methyl-1H-indazol-4-yl)-3-(4-(ethyl(oxetan-3-yl)amino)-2,2-dimethylpiperidin-1-yl)-5-methyl-1H-pyrazol-1-yl)-2-azaspiro[3.3]heptan-2-yl)prop-2-en-1-one], the IC50 was 6 nM. The same measure for `C=CC(=O)N1CC2(CC(n3nc(N4CC[C@@H](CN5CCN(CCOC)C(=O)C5)CC4(C)C)c(-c4c(Cl)c(Cl)cc5[nH]ncc45)c3C)C2)C1` (single isomer, unassigned) [Example 256a]: 1300 nM.

With `C=CC(=O)N1CC2(CC(n3nc(N4CC(=O)N(C)CC45CCC5)c(-c4c(Cl)c(C)cc5[nH]ncc45)c3C)C2)C1` (single isomer, unassigned) [Example 65a, 5-(1-(2-acryloyl-2-azaspiro[3.3]heptan-6-yl)-4-(5-chloro-6-methyl-1H-indazol-4-yl)-5-methyl-1H-pyrazol-3-yl)-8-methyl-5,8-diazaspiro[3.5]nonan-7-one], the IC50 was over 5000 nM. The same measure for `C=CC(=O)N1CC2(CC(n3nc(N4CCC(C)(O)CC4(C)C)c(-c4c(Cl)c(C)cc5[nH]ncc45)c3C)C2)C1` (single isomer, unassigned) [Example 27b, 1-(6-(4-(5-chloro-6-methyl-1H-indazol-4-yl)-3-(4-hydroxy-2,2,4-trimethylpiperidin-1-yl)-5-methyl-1H-pyrazol-1-yl)-2-azaspiro[3.3]heptan-2-yl)prop-2-en-1-one]: 24 nM.

`C=CC(=O)N1CC2(CC(n3nc(N4CCN(CC(C)(C)O)C[C@@]4(C)CC)c(-c4c(Cl)c(C)cc5[nH]ncc45)c3C)C2)C1` (single isomer, unassigned) [Example 164a]: the IC50 is over 5000 nM. For `C=CC(=O)N1CC2(CC(n3nc(N4CCN(C5COC5)C5COCC54)c(-c4c(Cl)c(C)cc5[nH]ncc45)c3C)C2)C1` (single isomer, unassigned) [Example 137b, 1-(6-(4-(5-chloro-6-methyl-1H-indazol-4-yl)-5-methyl-3-((4aS*,7aS*)-4-(oxetan-3-yl)hexahydrofuro[3,4-b]pyrazin-1(2H)-yl)-1H-pyrazol-1-yl)-2-azaspiro[3.3]heptan-2-yl)prop-2-en-1-one], the IC50 was found to be 975 nM. Under `C=CC(=O)N1CC2(CC(n3nc(N4CCC(N5CCOCC5)CC45CCC5)c(-c4c(Cl)c(C)cc5[nH]ncc45)c3C)C2)C1` (single isomer, unassigned) [Example 63b, 1-(6-(4-(5-chloro-6-methyl-1H-indazol-4-yl)-5-methyl-3-(8-morpholino-5-azaspiro[3.5]nonan-5-yl)-1H-pyrazol-1-yl)-2-azaspiro[3.3]heptan-2-yl)prop-2-en-1-one] stands 3100 nM; under `C=CC(=O)N1CC2(CC(n3nc(N4CCN(C(C)=O)CC4)c(-c4c(C)c(C)cc5[nH]ncc45)c3C)C2)C1` (single isomer, unassigned) [Example 2a, 1-(6-(3-(4-acetylpiperazin-1-yl)-4-(5,6-dimethyl-1H-indazol-4-yl)-5-methyl-1H-pyrazol-1-yl)-2-azaspiro[3.3]heptan-2-yl)prop-2-en-1-one], over 50000 nM. Under `C=CC(=O)N1CC2(CC(n3nc(N4CCN(C5CCOCC5)C[C@]4(C)COC)c(-c4c(Cl)c(C)cc5[nH]ncc45)c3C)C2)C1` (single isomer, unassigned) [Example 149b] stands 9 nM; under `C=CC(=O)N1CC2(CC(n3nc(N4CCc5c(cnn5C)C4)c(-c4c(Cl)c(C)cc5[nH]ncc45)c3C)C2)C1` (single isomer, unassigned) [Example 11a, 1-(6-(4-(5-chloro-6-methyl-1H-indazol-4-yl)-5-methyl-3-(1-methyl-1,4,6,7-tetrahydro-5H-pyrazolo[4,3-c]pyridin-5-yl)-1H-pyrazol-1-yl)-2-azaspiro[3.3]heptan-2-yl)prop-2-en-1-one], over 50000 nM. Turning to `C=CC(=O)N1CC2(CC(n3nc(N4CC[C@@H](CN5CCN(C(=O)NC)CC5)CC4(C)C)c(-c4c(Cl)c(Cl)cc5[nH]ncc45)c3C)C2)C1` (single isomer, unassigned) [Example 289a], the IC50 was 3300 nM. Take `C=CC(=O)N1CC2(CC(n3nc(N4CC[C@@H](CN(C5COC5)C5COC5)CC4(C)C)c(-c4c(Cl)c(Cl)cc5[nH]ncc45)c3C)C2)C1` (single isomer, unassigned) [Example 282a]: the IC50 is 1500 nM. For the compound `CC[C@@]1(C)CN(C[C@@H]2COCCO2)CCN1c1nn(C2CC3(C2)CN(C(=O)/C=C/Cl)C3)c(C)c1-c1c(Cl)c(C)cc2[nH]ncc12` (single isomer, unassigned) [Example 175a], the IC50 came to 939 nM. Regarding `C=CC(=O)N1CC2(CC(n3nc(N4CC[C@@H](CN5CCCC56CN(C(C)=O)C6)CC4(C)C)c(-c4c(Cl)c(Cl)cc5[nH]ncc45)c3C)C2)C1` (single isomer, unassigned) [Example 276a], the IC50 was 3400 nM. The same measure for `C=CC(=O)N1CC2(CC(n3nc(N4CCC(O)CC4(C)C)c(-c4c(Cl)c(C)cc5[nH]ncc45)c3C)C2)C1` (single isomer, unassigned) [Example 29b, 1-(6-(4-(5-chloro-6-methyl-1H-indazol-4-yl)-3-(4-hydroxy-2,2-dimethylpiperidin-1-yl)-5-methyl-1H-pyrazol-1-yl)-2-azaspiro[3.3]heptan-2-yl)prop-2-en-1-one]: 32 nM; for `C=CC(=O)N1CC2(CC(n3nc(N4CC[C@@H](CN5CCN(C(=O)NC)CC5)CC4(C)C)c(-c4c(Cl)c(Cl)cc5[nH]ncc45)c3C)C2)C1` (single isomer, unassigned) [Example 289b]: 10 nM. The same measure for `C=CC(=O)N1CC2(CC(n3nc(N4CCN(C(C)=O)CC4)c(-c4c(Cl)ccc5[nH]ncc45)c3C)C2)C1C` (single isomer, unassigned) [Example 197b, 1-(6-(3-(4-acetylpiperazin-1-yl)-4-(5-chloro-1H-indazol-4-yl)-5-methyl-1H-pyrazol-1-yl)-1-methyl-2-azaspiro[3.3]heptan-2-yl)prop-2-en-1-one]: 49700 nM; for `C=CC(=O)N1CC2(CC(n3nc(N4CCN(C5CCOCC5)C[C@]4(C)CCOC)c(-c4c(Cl)c(C)cc5[nH]ncc45)c3C)C2)C1` (single isomer, unassigned) [Example 87b]: 1500 nM. Consider `C=CC(=O)N1CC2(CC(n3nc(N4CCN(C[C@@H]5COCCO5)CC4(C)C)c(-c4c(Cl)c(Cl)cc5[nH]ncc45)c3C)C2)C1` (single isomer, unassigned) [Example 172b], for which the IC50 was 15 nM. Consider `C=CC(=O)N1CC2(CC(n3nc(N4CCN(C5CCOCC5)C[C@@]4(C)C(F)F)c(-c4c(Cl)c(Cl)cc5[nH]ncc45)c3C)C2)C1` (single isomer, unassigned) [Example 106b], for which the IC50 stood at 14 nM. `C=CC(=O)N1CC2(CC(n3nc(N4CCN(C(C)=O)CC45CCC5)c(-c4c(Cl)c(C)cc5[nH]ncc45)c3C)C2)C1` (single isomer, unassigned) [Example 21b, 1-(6-(3-(8-acetyl-5,8-diazaspiro[3.5]nonan-5-yl)-4-(5-chloro-6-methyl-1H-indazol-4-yl)-5-methyl-1H-pyrazol-1-yl)-2-azaspiro[3.3]heptan-2-yl)prop-2-en-1-one]: the IC50 stood at 17 nM.

As for `C=CC(=O)N1CC2(CC(n3nc(N4CCC(C)(O)CC4(C)C)c(-c4c(Cl)c(C)cc5[nH]ncc45)c3C)C2)C1` (single isomer, unassigned) [Example 27a, 1-(6-(4-(5-chloro-6-methyl-1H-indazol-4-yl)-3-(4-hydroxy-2,2,4-trimethylpiperidin-1-yl)-5-methyl-1H-pyrazol-1-yl)-2-azaspiro[3.3]heptan-2-yl)prop-2-en-1-one], the IC50 came to 2700 nM.
